# Experiments:
# [1] = molecular target: human cannabinoid receptors 2 (hCBR2s) (Homo sapiens, UniProt P34972); details: cited from earlier work
# [2] = system: macrophages; details: cited from earlier work
# [3] = system: leukemia HL-60 cells; details: cited from earlier work
# [4] = system: SK-MEL, KB, BT-549, and SK-OV-3; details: BT-549, SK-OV-3; cited from earlier work
# [5] = system: rotavirus; details: HT29.f8 cells; cited from earlier work
# [6] = Lipophilicity from retention in reverse-phase HPLC; details: later retention time in reverse-phase HPLC
# [7] = system: intracellular reactive oxygen species; details: cited from earlier work
# [8] = system: resveratrol prenyltransferase AhR4DT; experiment: Prenyltransferase assay with microsomal fraction of elicited peanut hairy roots; type: biochemical, Arachis hypogaea; details: microsomal fraction of peanut hairy roots, 28° C., 60 min; read-out: apparent km
# [9] = in vivo; cited from earlier work
# [10] = substrate: CC(C)=CCOP(=O)(O)OP(=O)(O)O; experiment: cells, lysate or membranes named; details: other: microsomal fraction of N. benthamiana leaves, pH 9.0, 28° C.
# [11] = substrate: Oc1cc(O)cc(/C=C/c2ccc(O)c(O)c2)c1; experiment: cells, lysate or membranes named
# [12] = substrate: Oc1ccc(/C=C/c2cc(O)cc(O)c2)cc1; experiment: cells, lysate or membranes named; details: other: microsomal fraction of N. benthamiana leaves, pH 9.0, 28° C.
# [13] = molecular target: AhR4DT-1 (Arachis hypogaea, UniProt A0A2H4GDC8); experiment: AhR4DT-1 activity in microsomal fraction of N. benthamiana leaves; details: N. benthamiana leaves
# [14] = system: resveratrol prenylation; experiment: Screening for stilbenoid prenylation activity, crude extract of infiltrated N. benthamiana leaves; type: biochemical, Arachis hypogaea; details: resveratrol and DMAPP as substrates
# Protocol: The engineered A. tumefaciens was grown in 5 mL of YEP medium, containing 50 mg/L of kanamycin (Sigma-Aldrich) and 30 mg/L of streptomycin (Sigma-Aldrich) for antibiotic selection, at 28° C. on an orbital shaker at 200 rpm. After cultivation for 2 days, 5 mL of bacterial suspension was inoculated into 50 mL of fresh YEP medium containing the antibiotics and allowed to grow for one additional day under the same conditions. Bacteria were pelleted by centrifugation, resuspended in 500 mL of induction medium containing 10 mM MgCl2 with 1 mM acetosyringone and incubated for 4 h at 28° C. under 200 rpm orbital shaking until their OD600 reached to a range from 0.5 to 0.6. Before the infiltration, 0.005% of Tween-20, 0.005% of Triton 100 and 0.005% of Silwet L-77 were added to bacterial cultures to enhance the efficiency of transformation in N. benthamiana leaves. Agrobacterium-mediated vacuum infiltration was performed on 4-week-old N. benthamiana following the methodology described previously (Medrano et al., 2009).
# After 48 hours of post-infiltration, the “middle tier” of N. benthamiana leaves were harvested for prenylation activity screening. Five grams of leaf tissue (fresh weight) were grounded and homogenized using a mortar with pestle in 10 mL of extraction buffer containing 100 mM Tris-HCl (pH 7.6) and 10 mM dithiothreitol (DTT). […] The total protein concentration was determined by coomassie protein assay (Thermo Scientific) using bovine serum albumin as standard.
# The reaction of crude cell-free extract of N. benthamiana leaves infiltrated with A. tumefaciens harboring the empty pBIB-Kan vector was used as control.
# [15] = molecular target: AhR3′DT-1 (Arachis hypogaea, UniProt A0A2H4GDD0); experiment: AhR3′DT-1 activity in microsomal fraction of N. benthamiana leaves; details: N. benthamiana leaves
# Sequence of human cannabinoid receptors 2 (hCBR2s) (P34972 whole entry): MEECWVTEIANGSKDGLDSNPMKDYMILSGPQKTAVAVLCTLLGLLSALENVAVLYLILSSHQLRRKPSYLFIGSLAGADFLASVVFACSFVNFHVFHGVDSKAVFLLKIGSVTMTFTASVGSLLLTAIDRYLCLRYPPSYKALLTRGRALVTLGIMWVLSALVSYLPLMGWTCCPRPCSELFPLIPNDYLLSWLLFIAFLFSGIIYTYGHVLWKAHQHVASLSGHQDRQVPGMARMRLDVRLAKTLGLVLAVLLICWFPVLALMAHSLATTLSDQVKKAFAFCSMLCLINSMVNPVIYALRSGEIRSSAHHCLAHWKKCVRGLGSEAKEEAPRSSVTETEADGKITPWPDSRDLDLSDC
Molecule,binding to hCBR2s [1],inhibiting inducible nitric oxide production [2],replication of rotavirus [5],inhibiting production of intracellular reactive oxygen species [7],Km [10],Km [12],further results
CC(C)/C=C/c1c(O)cc(/C=C/c2ccc(O)c(O)c2)cc1O [arachidin-1],shown to bind,more effective than resveratrol,inhibiting the replication of rotavirus,–,–,–,"cytotoxicity [3]: higher cytotoxicity than resveratrol; cytotoxicity [4]: higher cytotoxicity than resveratrol; lipophilicity compared with 3,3-dimethylallyl analogs [6]: higher lipophilicity"
CC(C)=CCc1c(O)cc(/C=C/c2ccc(O)cc2)cc1O [arachidin-2],–,more effective than resveratrol,–,greater potency over resveratrol,–,–,–
CC(C)/C=C/c1c(O)cc(/C=C/c2ccc(O)cc2)cc1O [arachidin-3],shown to bind,more effective than resveratrol,inhibiting the replication of rotavirus,greater potency over resveratrol,–,–,–
"Oc1ccc(/C=C/c2cc(O)cc(O)c2)cc1 [resveratrol, 3,5,4′-trihydroxy-trans-stilbene]",–,–,–,–,–,–,Km [8]: 111 ± 40.4 µM; oral bioavailability [9]: limited oral bioavailability
AhR4DT-1 (Arachis hypogaea) (protein) MAFGHLVLIPRSTSSIATTAASCWKSKKFADNYYANSYGRRALWQSDRNLTKDHSIKTSLQHNISKLHYNPIERGSRCNKIEKTYLTNASSSAQSHESEPEVHESPKALESIKKGLVMFLQFCRLYAFLGMIPAGLSSSLLAVDNFSEISPLLFLKGVLQYIVTFFFTSQFVMGVNQLSDVEIDKINKPDLPLASGEYSFTSGVILVTSFLLAGFGVAWMLGSQPLIWSVVVTAALMGAYSVNFPLLRWKRSIILTSLSNAIAMLASFHIGPFLHMKTFVLKKAATFPRSMILGCVVIGLFYTIITLTKDLGDVEGDKAAGLKTLPIRLGVKPVFWLCVSLIQMAYGIAITMGALSPVLWSKIVTVVAHAFMVFYVWNHALNSVDLSSKDSLHSFHLFMFKLVTVEGILIQFVR,–,–,–,–,153.7 ± 27.28 µM,99.52 ± 15.11 µM,"Km ([11]; other: microsomal fraction of N. benthamiana leaves, pH 9.0, 28° C.): 311.4 ± 54.83 µM; specific activity, microsomal fraction vs crude cell-free extracts [13]: 8.9 fold"
AhR3′DT-1 (Arachis hypogaea) (protein) MAFGVVAASFSRAPSIVTTRGCYVTRASLPNKSLKFSKEYNLKTSLQHNWKHNSRSIFERGSTITTCDKYDEKKYLMNVTQSHEAEPHSQSILKSIIDALDAFRKFSRFYAFIAMVVGSLSTSLLAVDNLTELYPAFFNGFLQCMAAYFFMHLYIVGINQLADLEIDKINKPYLPLASGNYSFRTAVITVTSFLFTGFGIAWIIGSKPLLWTIFASFVLMTAYSVNLPLLRWKKSTILTVMGNTLSMVISFNLGPFYHMKTHVLKKAATFPRSLLFAVVVMSMYYIVIALTKDIPDIEGDKEAGLQTLAIRLGPKTVFWSSVALLEMAYGAAIIIGASSPFLWSKISVVLSHAILALFVWYRSTLVDLSNKDSLQAFYMLIFKLFSVENILMLFVR,–,–,–,–,691.4 ± 48.46 µM,17.67 ± 1.601 µM,"resveratrol prenyltransferase activity [14]: highest activity; Km ([11]; pH 9.0, 28.0 °C): 50.3 ± 5.509 µM; specific activity, microsomal fraction vs crude cell-free extracts [15]: 13.9 fold"
